Experiment [1] deals with Epithelial discoidin domain-containing receptor 1 (Homo sapiens, UniProt Q08345). As to the kind of experiment: LanthaScreen Eu Kinase Activity Assay. The conditions noted are these: pH 7.5; 25 °C. As to the method:
(§1) The effects of compounds on the kinases DDR1 and DDR2 were assessed by using a LanthaScreen Eu kinase activity assay technology (Invitrogen, Carlsbad, CA, USA). […] Reaction buffer for the kinase reaction consists of 50 mm HEPES pH 7.5, 0.01% BRIJ-35, 10 mm MgCl2, and 1 mm EGTA. The concentration of fluorescein-polyGAT substrate (Invitrogen) in the assay was […] reactions were initiated with the addition of […] in the presence of serial dilutions of compounds. The reactions were allowed to proceed for 1 hour at room temperature before a 10 μL preparation of EDTA (20 mm) and Eu-labeled antibody (4 nm) in TR-FRET dilution buffer was added. The final concentration of antibody in the assay well was 2 nm, and the final concentration of EDTA was 10 mm.

Experiment [2] has as its target T1, Discoidin domain-containing receptor 2 (Homo sapiens, UniProt Q16832).
T1 sequence (Q16832 whole entry): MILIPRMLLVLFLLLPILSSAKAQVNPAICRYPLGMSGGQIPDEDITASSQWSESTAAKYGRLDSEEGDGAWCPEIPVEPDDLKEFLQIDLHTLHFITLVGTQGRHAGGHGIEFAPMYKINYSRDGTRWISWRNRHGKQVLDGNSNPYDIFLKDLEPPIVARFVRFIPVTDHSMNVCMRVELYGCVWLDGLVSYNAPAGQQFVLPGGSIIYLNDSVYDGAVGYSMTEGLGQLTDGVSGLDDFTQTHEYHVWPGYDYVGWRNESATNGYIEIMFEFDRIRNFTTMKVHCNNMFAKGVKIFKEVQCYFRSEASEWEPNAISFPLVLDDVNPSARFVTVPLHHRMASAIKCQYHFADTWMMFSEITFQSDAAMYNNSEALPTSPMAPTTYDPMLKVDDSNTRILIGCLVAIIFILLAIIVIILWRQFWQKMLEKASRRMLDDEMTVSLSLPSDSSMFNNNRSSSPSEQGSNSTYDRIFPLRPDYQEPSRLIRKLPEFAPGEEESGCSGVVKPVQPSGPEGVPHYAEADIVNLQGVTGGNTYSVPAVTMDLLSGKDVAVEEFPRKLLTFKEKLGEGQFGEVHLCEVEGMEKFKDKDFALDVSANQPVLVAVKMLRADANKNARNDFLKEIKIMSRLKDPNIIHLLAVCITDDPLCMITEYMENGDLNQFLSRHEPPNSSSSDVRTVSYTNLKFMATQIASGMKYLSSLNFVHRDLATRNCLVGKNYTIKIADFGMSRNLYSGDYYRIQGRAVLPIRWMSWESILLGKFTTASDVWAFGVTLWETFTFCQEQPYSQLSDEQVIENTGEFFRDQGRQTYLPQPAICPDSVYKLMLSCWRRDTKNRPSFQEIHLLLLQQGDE
As to the kind of experiment: LanthaScreen Eu Kinase Activity Assay. As to conditions: pH 7.5; 25 °C. The procedure: as §1
For orientation: Time-resolved FRET reads energy transfer from a long-lived donor to a nearby acceptor.

Epithelial discoidin domain-containing receptor 1, sequence (Q08345 whole entry, the tested form may be a part): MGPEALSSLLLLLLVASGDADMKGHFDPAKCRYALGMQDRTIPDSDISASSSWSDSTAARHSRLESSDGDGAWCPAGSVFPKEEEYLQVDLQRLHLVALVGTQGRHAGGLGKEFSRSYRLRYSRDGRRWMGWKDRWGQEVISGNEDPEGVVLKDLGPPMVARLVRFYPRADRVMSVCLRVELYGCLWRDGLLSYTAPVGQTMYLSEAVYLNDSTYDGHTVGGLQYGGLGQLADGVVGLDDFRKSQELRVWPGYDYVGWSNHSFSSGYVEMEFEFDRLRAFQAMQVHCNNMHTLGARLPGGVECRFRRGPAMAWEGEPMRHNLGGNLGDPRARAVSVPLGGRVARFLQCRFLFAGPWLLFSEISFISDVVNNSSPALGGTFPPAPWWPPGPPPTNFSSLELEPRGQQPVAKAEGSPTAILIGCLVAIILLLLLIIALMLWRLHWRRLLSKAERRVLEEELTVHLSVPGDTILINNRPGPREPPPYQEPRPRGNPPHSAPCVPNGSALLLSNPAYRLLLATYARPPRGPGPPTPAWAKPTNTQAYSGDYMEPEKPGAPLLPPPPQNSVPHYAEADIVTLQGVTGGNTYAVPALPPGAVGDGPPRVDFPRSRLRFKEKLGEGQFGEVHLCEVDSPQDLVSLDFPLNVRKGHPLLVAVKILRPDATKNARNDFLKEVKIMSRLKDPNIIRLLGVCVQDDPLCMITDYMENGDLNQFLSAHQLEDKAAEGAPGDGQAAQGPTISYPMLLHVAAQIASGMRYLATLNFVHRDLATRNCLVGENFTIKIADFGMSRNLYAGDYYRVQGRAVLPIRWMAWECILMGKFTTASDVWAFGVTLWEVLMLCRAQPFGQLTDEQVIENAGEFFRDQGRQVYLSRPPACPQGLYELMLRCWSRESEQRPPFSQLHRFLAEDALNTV

`CCOC(=O)N1CCN(c2cc(Nc3ncc(C(=O)Nc4c(C)cccc4Cl)s3)nc(C)n2)CC1` [Ethyl 4-(6-((5-((2-chloro-6-methylphenyl)carbamoyl)thiazol-2-yl)amino)-2-methylpyrimidin-4-yl)-piperazine-1-carboxylate (3b)]: the IC50 in experiment [1] came to 3.15 nM; in experiment [2], 11.4 nM.

`Cc1nc(Nc2ncc(C(=O)Nc3c(C)cccc3Cl)s2)cc(N2CCN(C(=O)OCCN(C)C)CC2)n1` [2-(Dimethylamino)ethyl 4-(6-((5-((2-chloro-6-methylphenyl)carbamoyl)thiazol-2-yl)amino)-2-methylpyrimidin-4-yl)-piperazine-1-carboxylate (3k)]: the IC50 in experiment [1] is 2.56 nM; in experiment [2], 7.89 nM.

As usually defined, the IC50 is the point on the concentration scale where inhibition reaches its midpoint.

Values taken from BindingDB's records for doi:10.1111/cbdd.12863 (Guangzhou Institutes of Biomedicine and Health, Chinese …, 2017).
